Reference: patent US20260200945A1, “4-(3,8-DIAZABICYCLO[3,2,1]OCTAN-3-YL)-PYRIDO[4,3-D]PYRIMIDINE DERIVATIVES AS INHIBITORS OF THE KRAS (G12D) MUTANT ONCOPROTEIN FOR THE TREATMENT OF CANCER” (Ranok Therapeutics (Hangzhou) Co. Ltd., priority 2022, published 2026)

Key:
AGS cells = assay: Cancer Cell Line Proliferation (CellTiter-Glo) AGS; assay type: cell-based; details: Homo sapiens, 72 hr, read-out: CTG(IC50) ABS-72H(nM) AGS
Experimental: (§1) The following cancer cell lines were employed: AGS gastric carcinoma [heterozygous […]](ATCC, CRL-1739); A-427 lung carcinoma [heterozygous G12D](ATCC, HTB-53); ASPC1 pancreatic adenocarcinoina [homozygous […]](ATCC, CRL-1682) and SW1990 pancreatic adenocarcinoma [homozygous G12D](ATCC CRL-2172). Cell lines were cultured essentially according to ATCC recommendations. AGS, SW1990, and GP2D cells were plated in 96-well tissue culture plates at 4,000 cells/well and incubated at 37° C./5% CO2 for 72 hr in 100 μl of media. 3-fold serial dilutions of each test compound were prepared ranging from 20 µM to 1.02 nM. Each cell line was then treated with test compounds at various concentrations with a final concentration of 0.5% DMSO/well, and then incubated at 37° C./5% CO2 for 72 hr. 100 μl of CellTiter-Glo® Reagent (Promega Corporation, Madison, WI) was added to each well and processed according manufacturer's protocol. Results were analyzed and IC50 values were calculated in GraphPad 7 software.

GP2D cells = assay: Cancer Cell Line Proliferation (CellTiter-Glo) GP2D; assay type: cell-based; details: 72 hr, read-out: CTG(IC50) ABS-72H(nM) GP2D
Experimental: AGS, SW1990, and GP2D cells were plated in 96-well tissue culture plates at 4,000 cells/well and incubated at 37° C./5% CO2 for 72 hr in 100 μl of media. 3-fold serial dilutions of each test compound were prepared ranging from 20 µM to 1.02 nM. Each cell line was then treated with test compounds at various concentrations with a final concentration of 0.5% DMSO/well, and then incubated at 37° C./5% CO2 for 72 hr. 100 μl of CellTiter-Glo® Reagent (Promega Corporation, Madison, WI) was added to each well and processed according manufacturer's protocol. Results were analyzed and IC50 values were calculated in GraphPad 7 software.

SW1990 cells = assay: Cancer Cell Line Proliferation (CellTiter-Glo) SW1990; assay type: cell-based; details: Homo sapiens, 72 hr, read-out: CTG(IC50) ABS-72H(nM) SW1990
Experimental: as §1

[1] = Oral Bioavailability in CD-1 mice; assay type: in vivo; details: mouse, blood; male CD-1 mice, single oral dose, LC-MS/MS; read-out: % F (mean oral bioavailability)
Experimental: CD-1 mice were randomly assigned to 6 groups with 3 male mice in each compound group. Compounds were orally administered (P0) in a single dose to each mouse in its group. Blood samples were taken within 72 hours. Bioavailability (F %) was determined and by liquid chromatography-mass spectrometry (LC-MS/MS).

KRAS(G12D)/SOS1 = target: T1, KRAS(G12D)/SOS1 (Homo sapiens, UniProt P01116, G12D); assay: KRAS(G12D)/SOS1 Homogeneous Time-Resolved Fluorescence (HTRF) Assay; assay type: binding; details: absence of GTP, 4° C. for 3 hr
T1 construct: purchased Cisbio 63ADK000CB17PEH
T1 sequence (P01116 1-188 isoform P01116-2 G12D): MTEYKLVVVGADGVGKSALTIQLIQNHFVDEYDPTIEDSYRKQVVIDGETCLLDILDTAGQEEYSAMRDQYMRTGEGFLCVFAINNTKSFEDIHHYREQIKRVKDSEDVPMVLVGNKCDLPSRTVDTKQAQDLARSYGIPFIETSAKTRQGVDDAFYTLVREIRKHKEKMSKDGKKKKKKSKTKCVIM
Experimental: Binding of test compounds to KRAS(G12D) target protein, which in turn blocks KRAS(G12D) interaction with the SOS1 protein, was measured in the absences of GTP by homogeneous time-resolved fluorescence using the KRAS-G12D/SOS1 Binding Assay Kit (Cisbio, 63ADK000CB17PEH), following the manufacturer's instructions, except as noted. 3-fold serial dilutions of each test compound were prepared ranging from 20 µM to 1.02 nM. The test compound was mixed and incubated with reaction components, incubated in a sealed plate at 4° C. for 3 hr and fluorescence was measured using a PerkinElmer Envision plate reader. The KRAS(G12D)-SOS1 IC50 values (the concentration of 50% of the maximal inhibition) were calculated using GraphPad Prism 7 software.

| Compound | IC50 (AGS cells) [nM] | IC50 (GP2D cells) [nM] | IC50 (SW1990 cells) [nM] | bioavailability [1] [%] | IC50 (KRAS(G12D)/SOS1) [nM] |
| --- | --- | --- | --- | --- | --- |
| C#Cc1c(F)ccc2cc(O)cc(-c3nc(OC)c4c(N5CC6CCC(C5)N6)nc(OC/C(=C\C#N)CN5CC6CC6C5)nc4c3F)c12 (centres unmarked) [Example 18] | 100 to 1000 |  |  |  |  |
| C#Cc1c(F)ccc2cc(O)cc(-c3nc(OC)c4c(N5CC6CCC(C5)N6)nc(OC/C(=C\C(F)(F)F)CN5CC6CC6C5)nc4c3F)c12 (centres unmarked) [Example 13] | 100 to 1000 | 100 to 1000 |  |  |  |
| C#Cc1c(F)ccc2c(F)c(O)cc(-c3nc(OC)c4c(N5CC6CCC(C5)N6)nc(OCC(CN5CC6CC6C5)=C(C)C)nc4c3F)c12 (centres unmarked) [Example 19] | 100 to 1000 | < 100 |  |  |  |
| C#Cc1c(F)ccc2cc(O)cc(-c3nc(OC)c4c(N5CC6CCC(C5)N6)nc(OCC(CN5CC6CC6C5)=C(F)F)nc4c3F)c12 (centres unmarked) [Example 6] | < 100 | < 100 | < 100 |  |  |
| [2H]C([2H])([2H])Oc1nc(-c2cc(O)cc3ccc(F)c(C#C)c23)c(F)c2nc(OCC(=C)CN3CC4CC4C3)nc(N3CC4CCC(C3)N4)c12 (centres unmarked) [Example 4] | < 100 | < 100 | < 100 | 1.7 | < 100 |
| C#Cc1c(F)ccc2cc(O)cc(-c3nc(OC)c4c(N5CC6CCC(C5)N6CC#N)nc(OCC(CN5CC6CC6C5)=C(C)C)nc4c3F)c12 (centres unmarked) [Example 14] | < 100 | < 100 |  |  |  |
| C#Cc1c(F)ccc2cc(O)cc(-c3nc(OC)c4c(N5CC6CCC(C5)N6)nc(OCC(=C)CN5CC6CC6C5)nc4c3F)c12 (centres unmarked) [Example 1, 4-{2-[(2-{3-azabicyclo[3.1.0]hexan-3-ylmethyl}prop-2-en-1-yl)oxy]-4-{3,8-diazabicyclo[3.2.1]octan-3-yl}-8-fluoro-5-methoxypyrido[4,3-d]pyrimidin-7-yl}-5-ethynyl-6-fluoronaphthalen-2-ol] | < 100 | < 100 | < 100 | 10.6 | < 100 |
| C#Cc1c(F)ccc2cc(O)cc(-c3nc(OC)c4c(N5CC6CCC(C5)N6)nc(OC/C(=C\C)CN5CC6CC6C5)nc4c3F)c12 (centres unmarked) [Example 9] | < 100 | < 100 |  |  |  |
| C#Cc1c(F)ccc2cc(O)cc(-c3nc(OC)c4c(N5CC6CCC(C5)N6)nc(OC/C(CN5CC6CC6C5)=N\OC)nc4c3F)c12 (centres unmarked) [Example 16] | < 100 | < 100 |  |  |  |
| C#Cc1c(F)ccc2cc(O)cc(-c3ncc4c(N5CC6CCC(C5)N6)nc(OCC(=C)CN5CCC(F)CC5)nc4c3F)c12 [Example 3] | < 100 | < 100 | < 100 |  | < 100 |
| C#Cc1c(F)ccc2cc(O)cc(-c3nc(OC)c4c(N5CC6CCC(C5)N6)nc(OCC(CN5CC6CC6C5)=C(C)C)nc4c3F)c12 (centres unmarked) [Example 2, 4-{2-[(2-{3-azabicyclo[3.1.0]hexan-3-ylmethyl}-3-methylbut-2-en-1-yl)oxy]-4-{3,8-diazabicyclo[3.2.1]octan-3-yl}-8-fluoro-5-methoxypyrido[4,3-d]pyrimidin-7-yl}-5-ethynyl-6-fluoronaphthalen-2-ol] | < 100 | < 100 | < 100 | 12.1 | < 100 |
| [2H]C([2H])([2H])Oc1nc(-c2cc(O)cc3ccc(F)c(C#C)c23)c(F)c2nc(OCC(=C)CN3CC4C(F)C4C3)nc(N3CC4CCC(C3)N4C(=O)C(F)(F)F)c12 (centres unmarked) [Example 8] | 100 to 1000 | 100 to 1000 |  |  |  |
| C#Cc1c(F)ccc2cc(N)cc(-c3nc(OC)c4c(N5CC6CCC(C5)N6)nc(OCC(=C)CN5CC6CC6C5)nc4c3F)c12 (centres unmarked) [Example 10] | 100 to 1000 | < 100 |  |  |  |
| C#Cc1c(F)ccc2cc(O)cc(-c3nc(OC)c4c(N5CC6CCC(C5)N6)nc(OCC(=C)CN5CC6C(F)C6C5)nc4c3F)c12 (centres unmarked) [Example 5] | < 100 | < 100 | < 100 | 7.7 | < 100 |
| C#Cc1c(F)ccc2cc(O)cc(-c3nc(OC)c4c(N5CC6CCC(C5)N6)nc(OC/C(CN5CC6CC6C5)=N/OC)nc4c3F)c12 (centres unmarked) [Example 15] | < 100 | < 100 |  |  |  |
| C#Cc1c(F)ccc2cc(O)cc(-c3nc(OC)c4c(N5CC6CCC(C5)N6)nc(OCC(=CCC)CN5CC6CC6C5)nc4c3F)c12 (centres unmarked) [Example 7] | 100 to 1000 | 100 to 1000 |  |  |  |
| C#Cc1c(F)ccc2cc(O)cc(-c3nc(OC)c4c(N5CC6CCC(C5)N6)nc(OC/C(=C/CC)CN5CC6CC6C5)nc4c3F)c12 (centres unmarked) [Example 11] | < 100 | < 100 |  |  |  |
| C#Cc1c(F)ccc2cc(O)cc(-c3nc(OC)c4c(N5CC6CCC(C5)N6)nc(OC/C(=C\CC)CN5CC6CC6C5)nc4c3F)c12 (centres unmarked) [Example 12] | 100 to 1000 | < 100 |  |  |  |
